Results: patent publication US11634486B2, “Anti-SEZ6L2 antibodies and antibody drug conjugates” (Bluefin BioMedicine, Inc., priority 2016, dated 2023)

Tested on: small cell lung cancer cell line NCI-H209
Experiment: ADC combined with PARP inhibitor, cell viability
Type: cell-based, human
Conditions: olaparib 10 nM to 10 uM, six days
Method: Briefly, the small cell lung cancer cell line NCI-H209, which expresses ˜10,000 copies of SEZ6L2 on the cell surface, was seeded onto 96 well plate at 5000 cells/well Immediately after seeding, 10 pM of 3E2-PBD or isotype control hIgG-PBD (bearing a drug antibody ratio (DAR) of 1.7 and 2.5 respectively) were added to the wells in complete culture medium. A PARP inhibitor (olaparib) was then added to these wells such that the final concentration ranged from 10 nM to 10 uM. The PARP inhibitor was also tested on cells without an ADC. Each treatment was replicated in 2 wells and after six days, the PARP inhibitor plus modulator-mediated PBD cytotoxicity was assessed by quantifying the remaining number of live cells using Cell Titer Glo™. Cell viability was graphed by Prism™ using ratio of cell viability of test conditions to that of control wells treated with growth medium only.

## O=C(c1cc(Cc2n[nH]c(=O)c3ccccc23)ccc1F)N1CCN(C(=O)C2CC2)CC1 [olaparib, reference compound]
  percent viable cells, PARP inhibitor alone: responded in a dose dependent manner
